Reference: the supplement of paper PMC10307832

Columns and labels:
Assay in all cases: relative viability (nuclei count vs DMSO), 5 days (fraction); higher = more cells survive
Dasatinib + Alpelisib = compound: Cc1nc(Nc2ncc(C(=O)Nc3c(C)cccc3Cl)s2)cc(N2CCN(CCO)CC2)n1 [Dasatinib] + Cc1nc(NC(=O)N2CCC[C@H]2C(N)=O)sc1-c1ccnc(C(C)(C)C(F)(F)F)c1 [Alpelisib] (partner 2 µM)
Outline: (§1)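 Values are medians from duplicate plates. Each reflects relative viability, defined as the nuclei count of treated wells over that of vehicle wells. Lung cancer cell lines in 1536-well plates were pin-tool dosed one day after seeding with one drug alone or with a fixed anchor-drug dose plus five library-drug doses (not always all listed) in √10 steps, then fixed, stained and imaged at 4× after 5 days.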

Dasatinib + Tozasertib = compound: Cc1nc(Nc2ncc(C(=O)Nc3c(C)cccc3Cl)s2)cc(N2CCN(CCO)CC2)n1 [Dasatinib] + Cc1cc(Nc2cc(N3CCN(C)CC3)nc(Sc3ccc(NC(=O)C4CC4)cc3)n2)n[nH]1 [Tozasertib] (partner 0.1 µM)
Outline: as §1

XMD13-2 + Linsitinib = compound: C1CC1C(=O)NC2=NNC3=C2C=CC(=C3)C4=CC(=CC=C4)C(=O)NC5CC5 [XMD13-2] + C[C@]1(O)C[C@@H](c2nc(-c3ccc4ccc(-c5ccccc5)nc4c3)c3c(N)nccn32)C1 [Linsitinib] (partner 1 µM)
Outline: as §1

XMD13-2 + Vorinostat = compound: C1CC1C(=O)NC2=NNC3=C2C=CC(=C3)C4=CC(=CC=C4)C(=O)NC5CC5 [XMD13-2] + O=C(CCCCCCC(=O)Nc1ccccc1)NO [Vorinostat] (partner 1 µM)
Outline: as §1

| Cell Line | relative viability (Dasatinib + Alpelisib; first compound 0.005 µM) | relative viability (Dasatinib + Alpelisib; first compound 0.01581 µM) | relative viability (Dasatinib + Alpelisib; first compound 0.05 µM) | relative viability (Dasatinib + Alpelisib; first compound 0.1581 µM) | relative viability (Dasatinib + Alpelisib; first compound 0.5 µM) | relative viability (Dasatinib + Tozasertib; first compound 0.005 µM) | relative viability (Dasatinib + Tozasertib; first compound 0.01581 µM) | relative viability (Dasatinib + Tozasertib; first compound 0.05 µM) | relative viability (Dasatinib + Tozasertib; first compound 0.1581 µM) | relative viability (Dasatinib + Tozasertib; first compound 0.5 µM) | relative viability (XMD13-2 + Linsitinib; first compound 0.05 µM) | relative viability (XMD13-2 + Linsitinib; first compound 0.1581 µM) | relative viability (XMD13-2 + Linsitinib; first compound 0.5 µM) | relative viability (XMD13-2 + Linsitinib; first compound 1.581 µM) | relative viability (XMD13-2 + Linsitinib; first compound 5 µM) | relative viability (XMD13-2 + Vorinostat; first compound 0.05 µM) | relative viability (XMD13-2 + Vorinostat; first compound 0.1581 µM) | relative viability (XMD13-2 + Vorinostat; first compound 0.5 µM) | relative viability (XMD13-2 + Vorinostat; first compound 1.581 µM) | relative viability (XMD13-2 + Vorinostat; first compound 5 µM) |
| --- | --- | --- | --- | --- | --- | --- | --- | --- | --- | --- | --- | --- | --- | --- | --- | --- | --- | --- | --- | --- |
| LXF-289 | 1.05 | 1.05 | 0.666 | 0.154 | 0.109 | 0.193 | 0.0886 | 0.0932 | 0.0636 | 0.0438 | 0.941 | 0.942 | 0.967 | 0.984 | 0.986 | 0.864 | 0.767 | 0.86 | 0.959 | 0.808 |
| NCI-H23 | 0.597 | 0.549 | 0.615 | 0.403 | 0.323 | 0.318 | 0.309 | 0.347 | 0.302 | 0.318 | 0.558 | 0.579 | 0.624 | 0.537 | 0.58 | 0.681 | 0.46 | 0.625 | 0.646 | 0.675 |
| NCI-H322M | 0.855 | 0.773 | 0.696 | 0.459 | 0.203 | 0.465 | 0.356 | 0.289 | 0.232 | 0.176 | 0.963 | 0.864 | 1.07 | 0.891 | 0.891 | 0.927 | 0.984 | 0.914 | – | 1.05 |
| NCI-H358 | 0.726 | 0.585 | 0.458 | 0.24 | 0.204 | 0.0888 | 0.0863 | 0.101 | 0.084 | 0.0689 | 0.759 | 0.764 | 0.826 | 0.663 | 0.449 | 0.751 | 0.687 | 0.692 | 0.489 | 0.442 |
| NCI-H441 | 0.878 | 0.874 | 0.574 | 0.355 | 0.218 | 0.594 | 0.539 | 0.625 | 0.467 | 0.375 | 0.771 | 0.415 | 0.558 | 0.64 | 0.398 | 0.854 | 1.01 | 0.97 | 0.87 | 0.839 |
| NCI-H460 | 0.286 | 0.179 | 0.159 | 0.122 | 0.0551 | 0.299 | 0.425 | 0.302 | 0.338 | 0.177 | 1.01 | 0.953 | 0.973 | 0.72 | 0.997 | 1 | 0.723 | 0.828 | 0.696 | 0.766 |
| NCI-H520 | 0.539 | 0.456 | 0.457 | 0.145 | 0.142 | 0.356 | 0.284 | 0.294 | 0.239 | 0.179 | 1.09 | 0.975 | 1.01 | 0.881 | 0.492 | 0.799 | 0.743 | 0.698 | 0.869 | 0.414 |
| NCI-H596 | 0.387 | 0.436 | 0.378 | 0.326 | 0.221 | 0.766 | 0.671 | 0.87 | 0.507 | 0.393 | 1.12 | 1.13 | 1.01 | 1.05 | 1.22 | 0.726 | 0.612 | 0.582 | 0.61 | 1.02 |
